Measured values taken from patent US20100234439A1, “THERAPEUTIC AGENTS” (priority 2006, published 2010).

Target: T1, CB1 receptor (Homo sapiens, UniProt P21554)
T1 construct: expressed in transfected cells; membranes prepared from them
Assay: [35S]-GTPγS binding assay, membranes from cells stably transfected with the CB1 gene, inhibition of CP55940 (EC80) stimulated activity
Assay type: biochemical
Details: concentration giving half maximal inhibition of GTPγS binding; EC80 concentration of agonist CP55940; 30° C., 45 min
Method: The compound of the present invention is active against the receptor product of the CB1 gene. The affinity of the compound of the invention for central cannabinoid receptors is demonstrable in methods described in Devane et al, Molecular Pharmacology, 1988, 34,605 or those described in WO01/70700 or EP 656354. Alternatively the assay may be performed as follows.
10 μg of membranes prepared from cells stably transfected with the CB1 gene were suspended in 200 μl of 100 mM NaCl, 5 mM MgCl2, 1 mM EDTA, 50 mM HEPES (pH 7.4), 1 mM DTT, 0.1% BSA and 100 μM GDP. To this was added an EC80 concentration of agonist (CP55940), the required concentration of test compound and 0.1 μCi [^35S]-GTPγS.
The reaction was allowed to proceed at 30° C. for 45 min. […] Filters were then covered with scintilant and counted for the amount of [^35S]-GTPγS retained by the filter.
Activity is measured in the absence of all ligands (minimum activity) or in the presence of an EC80 concentration of CP55940 (maximum activity). […] At various concentrations of novel ligand, activity is calculated as a percentage of the maximum activity and plotted. The data are fitted using the equation y=A+((B−A)/1+((C/x)ÙD)) and the IC50 value determined as the concentration required to give half maximal inhibition of GTPγS binding under the conditions used.

T1 sequence (P21554 whole entry): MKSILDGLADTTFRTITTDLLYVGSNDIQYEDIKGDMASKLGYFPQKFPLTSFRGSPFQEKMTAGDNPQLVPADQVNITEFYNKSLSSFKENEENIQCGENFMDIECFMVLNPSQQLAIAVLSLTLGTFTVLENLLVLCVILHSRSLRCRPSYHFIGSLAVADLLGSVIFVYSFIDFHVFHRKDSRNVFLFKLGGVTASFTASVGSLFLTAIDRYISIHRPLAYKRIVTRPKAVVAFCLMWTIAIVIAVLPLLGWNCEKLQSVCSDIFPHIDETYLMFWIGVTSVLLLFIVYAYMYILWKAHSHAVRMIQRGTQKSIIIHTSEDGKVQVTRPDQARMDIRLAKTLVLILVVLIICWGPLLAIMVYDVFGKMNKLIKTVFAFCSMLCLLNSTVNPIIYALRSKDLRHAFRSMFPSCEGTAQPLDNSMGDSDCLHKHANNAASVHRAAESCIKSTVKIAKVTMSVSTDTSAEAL

## O=C(N[C@@H]1CCCC[C@@H]1O)c1nn(-c2ccc(Cl)cc2Cl)c(-c2ccc(OS(=O)(=O)CCC(F)(F)F)cc2)c1CO (single isomer, unassigned) [Example 1, (+)3,3,3-Trifluoro-propane-1-sulfonic acid 4-[2-(2,4-dichloro-phenyl)-5-(2-hydroxy-cyclohexylcarbamoyl)-4-hydroxymethyl-2H-pyrazol-3-yl]-phenyl ester]
  IC50: 1 nM
